Experimental data published in paper PMC3446843 (Toxicological Sciences, 2012).

Key:
[1] = system: isolated mouse liver mitochondria; assay: Loss of mitochondrial transmembrane potential; format: biochemical; conditions: for ΔΨm loss EC20: 20% of maximal loss of ΔΨm (50µM mClCCP = 100%), 30-min incubation
[2] = system: isolated mouse liver mitochondria, complex I; assay: Oxygen consumption through complex I; conditions: for O2 cons CI EC20: inhibition of oxygen consumption, malate + glutamate + ADP, 2µM rotenone = 100%; for effect on oxygen consumption (in words): with malate/glutamate and/or succinate

Compound	ΔΨm loss EC20 [1]	O2 cons CI EC20 [2]	effect on oxygen consumption (in words) [2]	concentrations collapsing the ΔΨm and altering the mitochondrial respiration ([1]; ΔΨm and respiration)
CC(=O)Nc1ccc(O)cc1 [Acetaminophen]	> 200 µM	> 400 µM	–	–
CC(=O)Oc1ccccc1C(=O)O [Acetylsalicylic acid]	335.5 µM	149.8 µM	–	–
CCCN(CCC)C(=O)Cc1c(-c2ccc(Cl)cc2)nc2ccc(Cl)cn12 [Alpidem]	83.7 µM	29.6 µM	–	–
NC12CC3CC(CC(C3)C1)C2 [Amantadine]	261.2 µM	> 400 µM	–	–
Nc1c(Br)cc(Br)cc1CN[C@H]1CC[C@H](O)CC1 [Ambroxol]	> 200 µM	> 200 µM	–	–
Cc1cc(=O)n(-c2ccccc2)n1C [Antipyrine]	300.0 µM	> 400 µM	–	–
O=C(O)CCCC[C@@H]1SC[C@@H]2NC(=O)N[C@@H]21 [Biotin]	> 400 µM	> 400 µM	–	–
CC(=O)Oc1ccc(C(c2ccc(OC(C)=O)cc2)c2ccccn2)cc1 [Bisacodyl]	312.4 µM	52.5 µM	–	–
CCCCN1CCCCC1C(=O)Nc1c(C)cccc1C (stereo not drawn) [Bupivacaine]	258.2 µM	> 800 µM	–	–
Cn1c(=O)c2c(ncn2C)n(C)c1=O [Caffeine]	> 400 µM	> 400 µM	–	–
COc1cc(CNC(=O)CCCC/C=C/C(C)C)ccc1O [Capsaicin]	275.0 µM	15.7 µM	–	–
NC(=O)N1c2ccccc2C=Cc2ccccc21 [Carbamazepine]	66.9 µM	–	increased oxygen consumption	–
C=CC1=C(C(=O)O)N2C(=O)[C@@H](NC(=O)/C(=N\OCC(=O)O)c3csc(N)n3)[C@H]2SC1 [Cefixime]	> 400 µM	216.8 µM	–	–
O=C(O)CCCc1ccc(N(CCCl)CCCl)cc1 [Chlorambucil]	> 200 µM	140.9 µM	–	–
O=P(O)(O)C(Cl)(Cl)P(=O)(O)O [Clodronate]	> 400 µM	227.2 µM	–	–
COc1cc(/C=C/C(=O)CC(=O)/C=C/c2ccc(O)c(OC)c2)ccc1O [Curcumin]	> 200 µM	> 200 µM	–	–
CC(C)(S)[C@@H](N)C(=O)O [D-penicillamine]	> 400 µM	> 800 µM	–	–
Nc1ccc(S(=O)(=O)c2ccc(N)cc2)cc1 [Dapsone]	> 400 µM	205.5 µM	–	–
COc1cccc2c1C(=O)c1c(O)c3c(c(O)c1C2=O)C[C@@](O)(C(C)=O)C[C@@H]3O[C@H]1C[C@H](N)[C@H](O)[C@H](C)O1 [Daunorubicin]	–	10.9 µM	–	–
C[C@@H]1C[C@H]2[C@@H]3CCC4=CC(=O)C=C[C@]4(C)[C@@]3(F)[C@@H](O)C[C@]2(C)[C@@]1(O)C(=O)CO [Dexamethasone]	> 200 µM	> 200 µM	–	–
Cc1c(N(C)CS(=O)(=O)[O-])c(=O)n(-c2ccccc2)n1C.[Na+] [Dipyrone]	354.4 µM	107.3 µM	–	–

Compound	ΔΨm loss EC20 [1]	O2 cons CI EC20 [2]	effect on oxygen consumption (in words) [2]	concentrations collapsing the ΔΨm and altering the mitochondrial respiration ([1]; ΔΨm and respiration)
C#Cc1cccc(Nc2ncnc3cc(OCCOC)c(OCCOC)cc23)c1 [Erlotinib]	195.9 µM	–	increased oxygen consumption	–
CC[C@H]1OC(=O)[C@H](C)[C@@H](O[C@H]2C[C@@](C)(OC)[C@@H](O)[C@H](C)O2)[C@H](C)[C@@H](O[C@@H]2O[C@H](C)C[C@H](N(C)C)[C@H]2O)[C@](C)(O)C[C@@H](C)C(=O)[C@H](C)[C@@H](O)[C@]1(C)O [Erythromycin]	> 400 µM	27.9 µM	–	–
CCOC(=O)c1ccc(O)cc1 [Ethyl paraben]	297.5 µM	47.8 µM	–	–
OC(Cn1cncn1)(Cn1cncn1)c1ccc(F)cc1F [Fluconazole]	512.7 µM	186.6 µM	–	–
Nc1nc2ncc(CNc3ccc(C(=O)N[C@@H](CCC(=O)O)C(=O)O)cc3)nc2c(=O)[nH]1 [Folic acid]	276.2 µM	213.0 µM	–	–
O=C(O)c1cc(O)c(O)c(O)c1 [Gallic acid]	> 200 µM	153.9 µM	–	–
CC(C)Cc1ccc(C(C)C(=O)O)cc1 (stereo not drawn) [Ibuprofen]	355.9 µM	132.1 µM	–	–
CC(=O)N1CCN(c2ccc(OCC3COC(Cn4ccnc4)(c4ccc(Cl)cc4Cl)O3)cc2)CC1 (stereo not drawn) [Ketoconazole]	243.0 µM	2.9 µM	–	–
Nc1ccn([C@@H]2CS[C@H](CO)O2)c(=O)n1 [Lamivudine]	347.2 µM	317.4 µM	–	–
CCN(CC)CC(=O)Nc1c(C)cccc1C [Lidocaine]	339.5 µM	–	increased oxygen consumption	–
CC[C@H](C)C(=O)O[C@H]1C[C@@H](C)C=C2C=C[C@H](C)[C@H](CC[C@@H]3C[C@@H](O)CC(=O)O3)[C@H]21 [Lovastatin]	43.6 µM	6.2 µM	–	–
Cc1ccc(Nc2c(F)cccc2Cl)c(CC(=O)O)c1 [Lumiracoxib]	148.8 µM	12.0 µM	–	–
[Cl][Mn][Cl] [Manganese chloride]	> 800 µM	> 400 µM	–	–
CN(C)C(=N)N=C(N)N [Metformin]	388.4 µM	351.8 µM	–	–
COC(=O)c1ccc(O)cc1 [Methyl paraben]	> 200 µM	94.8 µM	–	–
C[C@](N)(Cc1ccc(O)c(O)c1)C(=O)O [Methyldopa]	> 400 µM	63.1 µM	–	–
CCOC(=O)[N-]c1cn(N2CCOCC2)n[o+]1 [Molsidomine]	> 400 µM	> 200 µM	–	–
C=CCN1CC[C@]23c4c5ccc(O)c4O[C@H]2C(=O)CC[C@@]3(O)[C@H]1C5 [Naloxone]	298.7 µM	> 400 µM	–	–
CN1CCC[C@H]1c1cccnc1 [Nicotine]	> 400 µM	312 µM	–	–
O=C(N/N=C/c1ccc([N+](=O)[O-])o1)c1ccc(O)cc1 [Nifuroxazide]	388.2 µM	3.7 µM	–	–
O=C1CN(/N=C/c2ccc([N+](=O)[O-])o2)C(=O)N1 [Nitrofurantoin]	442.5 µM	8.7 µM	–	–

Compound	ΔΨm loss EC20 [1]	O2 cons CI EC20 [2]	effect on oxygen consumption (in words) [2]	concentrations collapsing the ΔΨm and altering the mitochondrial respiration ([1]; ΔΨm and respiration)
CO[C@@H]1[C@@H](OC(N)=O)[C@@H](O)[C@H](Oc2ccc3c(O)c(NC(=O)c4ccc(O)c(CC=C(C)C)c4)c(=O)oc3c2C)OC1(C)C [Novobiocin]	351.6 µM	173.5 µM	–	–
CCN(CC)CC#CCOC(=O)C(O)(c1ccccc1)C1CCCCC1 (stereo not drawn) [Oxybutynine]	178.3 µM	115.4 µM	–	–
C#CCN(C)Cc1ccccc1 [Pargyline]	243 µM	206.8 µM	–	–
Oc1cc(O)cc(O)c1 [Phloroglucinol]	> 800 µM	> 400 µM	–	–
CN1C(C(=O)Nc2ccccn2)=C(O)c2ccccc2S1(=O)=O [Piroxicam]	101.7 µM	6.6 µM	–	–
CCCOC(=O)c1ccc(O)cc1 [Propyl paraben]	162.8 µM	28.4 µM	–	–
NC(=O)c1cnccn1 [Pyrazinamide]	> 400 µM	190.9 µM	–	–
CNC(=C[N+](=O)[O-])NCCSCc1ccc(CN(C)C)o1 [Ranitidine]	368.1 µM	97.3 µM	–	–
Cc1cc2nc3c(=O)[nH]c(=O)nc-3n(C[C@H](O)[C@H](O)[C@H](O)CO)c2cc1C [Riboflavin]	–	182.8 µM	–	–
O=C1NS(=O)(=O)c2ccccc21 [Saccharin]	> 400 µM	179.4 µM	–	–
O=C(O)c1ccccc1O [Salicylic acid]	304.3 µM	120.9 µM	–	–
CC(C)(C)NC(=O)[C@@H]1C[C@@H]2CCCC[C@@H]2CN1C[C@@H](O)[C@H](Cc1ccccc1)NC(=O)[C@H](CC(N)=O)NC(=O)c1ccc2ccccc2n1 [Saquinavir]	10.3 µM	–	increased oxygen consumption	lower than 50 μM
CN[C@@H]1[C@H](O)[C@H](NC)[C@H]2O[C@@]3(O)C(=O)C[C@@H](C)O[C@H]3O[C@@H]2[C@H]1O [Spectinomycin]	> 400 µM	–	increased oxygen consumption	–
OC[C@H]1O[C@@](CO)(O[C@H]2O[C@H](CO)[C@@H](O)[C@H](O)[C@H]2O)[C@@H](O)[C@@H]1O [Sucrose]	> 800 µM	> 800 µM	–	–
Cc1cc(NS(=O)(=O)c2ccc(N)cc2)no1 [Sulfamethoxazole]	> 400 µM	> 400 µM	–	–
CC1=C(CC(=O)O)c2cc(F)ccc2/C1=C\c1ccc([S+](C)[O-])cc1 (stereo not drawn) [Sulindac]	> 200 µM	35.6 µM	–	–
NCCS(=O)(=O)O [Taurine]	> 800 µM	> 800 µM	–	–
C[C@@H]1O[C@@H](OC[C@H]2O[C@@H](Oc3c(-c4ccc(OCCO)c(OCCO)c4)oc4cc(OCCO)cc(O)c4c3=O)[C@H](O)[C@@H](O)[C@@H]2O)[C@H](O)[C@H](O)[C@H]1O [Troxerutin]	> 400 µM	170.5 µM	–	–
CCCC(CCC)C(=O)O [Valproic acid]	267.2 µM	44.9 µM	–	–
CC[C@]1(O)C[C@@H]2CN(CCc3c([nH]c4ccccc34)[C@@](C(=O)OC)(c3cc4c(cc3OC)N(C)[C@H]3[C@@](O)(C(=O)OC)[C@H](OC(C)=O)[C@]5(CC)C=CCN6CC[C@]43[C@@H]65)C2)C1 [Vinblastine]	25.7 µM	–	–	–
CCOC(=O)CN[C@@H](C(=O)N1CC[C@H]1C(=O)NCc1ccc(/C(N)=N\O)cc1)C1CCCCC1 [Ximelagatran]	535.7 µM	–	–	–
